These results are taken from ChEMBL document CHEMBL5465560, “Selectivity Literature for EUbOPEN Chemogenomic Library” (2024).

The target of assay [1] is Serine/threonine-protein kinase PAK 6 (Homo sapiens) (UniProt Q9NQU5). Briefly: Selectivity interaction (ProQinase) EUB0000171b PAK6.
The target in assay [2] is T1, Ephrin type-A receptor 6 (Homo sapiens) (UniProt Q9UF33).
T1 sequence (whole entry): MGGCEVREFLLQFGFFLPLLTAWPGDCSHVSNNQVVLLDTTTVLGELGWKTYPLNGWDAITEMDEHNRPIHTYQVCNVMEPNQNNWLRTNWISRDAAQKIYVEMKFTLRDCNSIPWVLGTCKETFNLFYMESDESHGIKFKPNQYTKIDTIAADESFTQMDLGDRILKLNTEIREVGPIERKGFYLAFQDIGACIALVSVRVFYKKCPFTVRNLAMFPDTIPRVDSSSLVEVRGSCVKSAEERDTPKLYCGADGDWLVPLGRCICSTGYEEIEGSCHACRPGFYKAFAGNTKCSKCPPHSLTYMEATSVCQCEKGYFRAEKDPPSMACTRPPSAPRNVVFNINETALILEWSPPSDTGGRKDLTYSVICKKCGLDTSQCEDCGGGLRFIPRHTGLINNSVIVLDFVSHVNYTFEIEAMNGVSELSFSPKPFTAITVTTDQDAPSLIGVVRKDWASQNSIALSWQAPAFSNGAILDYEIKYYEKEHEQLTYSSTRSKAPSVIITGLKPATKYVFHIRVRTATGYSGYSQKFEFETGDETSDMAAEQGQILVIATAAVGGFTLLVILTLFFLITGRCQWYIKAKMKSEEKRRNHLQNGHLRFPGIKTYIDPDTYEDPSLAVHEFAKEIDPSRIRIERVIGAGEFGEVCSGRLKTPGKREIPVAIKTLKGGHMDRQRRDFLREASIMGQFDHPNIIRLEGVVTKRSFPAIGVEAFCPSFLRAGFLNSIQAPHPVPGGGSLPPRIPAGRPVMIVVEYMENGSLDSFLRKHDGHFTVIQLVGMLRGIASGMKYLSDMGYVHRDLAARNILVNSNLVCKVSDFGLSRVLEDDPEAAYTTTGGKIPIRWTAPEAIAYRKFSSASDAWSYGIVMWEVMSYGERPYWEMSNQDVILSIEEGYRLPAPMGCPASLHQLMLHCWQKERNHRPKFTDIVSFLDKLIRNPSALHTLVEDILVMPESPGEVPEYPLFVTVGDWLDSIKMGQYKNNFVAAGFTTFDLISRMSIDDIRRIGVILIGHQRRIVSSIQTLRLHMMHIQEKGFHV
Put plainly: Selectivity interaction (KinomeScan (DiscoverX)) EUB0000092b EPHA6. The conditions noted are these: at 10 µM.

For assay [3], the target named is Serine/threonine-protein kinase MRCK gamma (Homo sapiens) (UniProt Q6DT37). Briefly: Selectivity interaction (KinomeScan (DiscoverX)) EUB0000666a CDC42BPG. To be noted: at 10 µM.
Assay [4] deals with Calcium/calmodulin-dependent protein kinase type 1 (Homo sapiens) (UniProt Q14012). Put plainly: Selectivity interaction (ActivX KiNativ screen (kinase selectivity in THP-1 cell lysates)) EUB0000639a CAMK1. To be noted: lysate, at 0.2 µM. The class given is subcellular.
For assay [5], the target named is T2, Cyclin-G-associated kinase (Homo sapiens) (UniProt O14976).
T2 sequence (whole entry): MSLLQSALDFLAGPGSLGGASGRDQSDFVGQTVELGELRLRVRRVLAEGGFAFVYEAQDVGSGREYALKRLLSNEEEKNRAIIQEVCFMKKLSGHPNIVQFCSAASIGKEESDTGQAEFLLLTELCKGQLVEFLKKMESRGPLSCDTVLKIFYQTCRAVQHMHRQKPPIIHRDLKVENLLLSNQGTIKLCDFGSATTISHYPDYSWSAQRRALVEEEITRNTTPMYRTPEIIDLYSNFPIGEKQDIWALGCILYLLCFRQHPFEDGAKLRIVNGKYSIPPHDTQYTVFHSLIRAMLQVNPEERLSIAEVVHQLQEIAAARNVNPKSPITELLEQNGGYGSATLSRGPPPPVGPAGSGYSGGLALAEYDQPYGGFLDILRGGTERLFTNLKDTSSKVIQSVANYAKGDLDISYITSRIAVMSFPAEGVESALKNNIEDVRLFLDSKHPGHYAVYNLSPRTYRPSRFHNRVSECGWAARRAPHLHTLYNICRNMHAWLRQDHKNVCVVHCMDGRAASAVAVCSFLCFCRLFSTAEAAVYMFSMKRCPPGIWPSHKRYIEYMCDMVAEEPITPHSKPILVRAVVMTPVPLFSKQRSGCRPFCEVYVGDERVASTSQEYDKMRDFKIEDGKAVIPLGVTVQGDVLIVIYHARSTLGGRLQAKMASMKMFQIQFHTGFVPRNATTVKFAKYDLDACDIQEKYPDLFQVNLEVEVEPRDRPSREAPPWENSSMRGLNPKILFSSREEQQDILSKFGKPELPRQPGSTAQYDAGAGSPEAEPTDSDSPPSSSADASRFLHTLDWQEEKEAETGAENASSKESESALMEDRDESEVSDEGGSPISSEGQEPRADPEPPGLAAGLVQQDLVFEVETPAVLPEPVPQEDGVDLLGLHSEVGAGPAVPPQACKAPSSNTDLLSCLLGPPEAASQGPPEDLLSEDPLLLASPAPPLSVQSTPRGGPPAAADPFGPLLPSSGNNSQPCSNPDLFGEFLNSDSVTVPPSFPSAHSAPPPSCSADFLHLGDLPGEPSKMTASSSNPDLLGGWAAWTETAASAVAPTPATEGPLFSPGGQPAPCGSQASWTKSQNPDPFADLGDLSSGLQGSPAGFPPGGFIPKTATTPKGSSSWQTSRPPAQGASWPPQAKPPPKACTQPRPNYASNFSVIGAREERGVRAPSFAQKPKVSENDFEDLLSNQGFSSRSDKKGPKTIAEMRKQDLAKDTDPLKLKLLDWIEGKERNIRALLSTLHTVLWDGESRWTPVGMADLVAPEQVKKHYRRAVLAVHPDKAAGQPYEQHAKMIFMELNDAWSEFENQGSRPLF
Briefly: Selectivity interaction (KinomeScan (DiscoverX)) EUB0000595a GAK. The conditions noted are these: at 10 µM.

Chain of Serine/threonine-protein kinase PAK 6 (Homo sapiens) (Q9NQU5 whole entry, looked up): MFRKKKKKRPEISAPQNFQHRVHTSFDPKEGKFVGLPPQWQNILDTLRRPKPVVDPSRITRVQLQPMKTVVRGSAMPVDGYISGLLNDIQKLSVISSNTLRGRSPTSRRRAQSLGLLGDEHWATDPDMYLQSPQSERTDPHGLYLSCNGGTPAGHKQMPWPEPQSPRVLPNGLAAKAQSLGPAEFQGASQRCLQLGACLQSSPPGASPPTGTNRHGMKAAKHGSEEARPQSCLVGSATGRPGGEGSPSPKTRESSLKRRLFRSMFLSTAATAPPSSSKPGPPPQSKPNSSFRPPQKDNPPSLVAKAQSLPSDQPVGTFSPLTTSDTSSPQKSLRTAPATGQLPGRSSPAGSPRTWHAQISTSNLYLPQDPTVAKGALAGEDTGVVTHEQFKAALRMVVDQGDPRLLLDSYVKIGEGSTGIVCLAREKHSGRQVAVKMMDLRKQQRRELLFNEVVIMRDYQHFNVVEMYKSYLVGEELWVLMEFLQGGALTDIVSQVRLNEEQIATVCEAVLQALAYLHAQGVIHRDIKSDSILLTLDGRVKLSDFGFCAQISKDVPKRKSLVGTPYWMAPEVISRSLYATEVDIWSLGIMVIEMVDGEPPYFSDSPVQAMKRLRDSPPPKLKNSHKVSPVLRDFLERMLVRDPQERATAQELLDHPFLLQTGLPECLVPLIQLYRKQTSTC
Chain of Serine/threonine-protein kinase MRCK gamma (Homo sapiens) (Q6DT37 whole entry): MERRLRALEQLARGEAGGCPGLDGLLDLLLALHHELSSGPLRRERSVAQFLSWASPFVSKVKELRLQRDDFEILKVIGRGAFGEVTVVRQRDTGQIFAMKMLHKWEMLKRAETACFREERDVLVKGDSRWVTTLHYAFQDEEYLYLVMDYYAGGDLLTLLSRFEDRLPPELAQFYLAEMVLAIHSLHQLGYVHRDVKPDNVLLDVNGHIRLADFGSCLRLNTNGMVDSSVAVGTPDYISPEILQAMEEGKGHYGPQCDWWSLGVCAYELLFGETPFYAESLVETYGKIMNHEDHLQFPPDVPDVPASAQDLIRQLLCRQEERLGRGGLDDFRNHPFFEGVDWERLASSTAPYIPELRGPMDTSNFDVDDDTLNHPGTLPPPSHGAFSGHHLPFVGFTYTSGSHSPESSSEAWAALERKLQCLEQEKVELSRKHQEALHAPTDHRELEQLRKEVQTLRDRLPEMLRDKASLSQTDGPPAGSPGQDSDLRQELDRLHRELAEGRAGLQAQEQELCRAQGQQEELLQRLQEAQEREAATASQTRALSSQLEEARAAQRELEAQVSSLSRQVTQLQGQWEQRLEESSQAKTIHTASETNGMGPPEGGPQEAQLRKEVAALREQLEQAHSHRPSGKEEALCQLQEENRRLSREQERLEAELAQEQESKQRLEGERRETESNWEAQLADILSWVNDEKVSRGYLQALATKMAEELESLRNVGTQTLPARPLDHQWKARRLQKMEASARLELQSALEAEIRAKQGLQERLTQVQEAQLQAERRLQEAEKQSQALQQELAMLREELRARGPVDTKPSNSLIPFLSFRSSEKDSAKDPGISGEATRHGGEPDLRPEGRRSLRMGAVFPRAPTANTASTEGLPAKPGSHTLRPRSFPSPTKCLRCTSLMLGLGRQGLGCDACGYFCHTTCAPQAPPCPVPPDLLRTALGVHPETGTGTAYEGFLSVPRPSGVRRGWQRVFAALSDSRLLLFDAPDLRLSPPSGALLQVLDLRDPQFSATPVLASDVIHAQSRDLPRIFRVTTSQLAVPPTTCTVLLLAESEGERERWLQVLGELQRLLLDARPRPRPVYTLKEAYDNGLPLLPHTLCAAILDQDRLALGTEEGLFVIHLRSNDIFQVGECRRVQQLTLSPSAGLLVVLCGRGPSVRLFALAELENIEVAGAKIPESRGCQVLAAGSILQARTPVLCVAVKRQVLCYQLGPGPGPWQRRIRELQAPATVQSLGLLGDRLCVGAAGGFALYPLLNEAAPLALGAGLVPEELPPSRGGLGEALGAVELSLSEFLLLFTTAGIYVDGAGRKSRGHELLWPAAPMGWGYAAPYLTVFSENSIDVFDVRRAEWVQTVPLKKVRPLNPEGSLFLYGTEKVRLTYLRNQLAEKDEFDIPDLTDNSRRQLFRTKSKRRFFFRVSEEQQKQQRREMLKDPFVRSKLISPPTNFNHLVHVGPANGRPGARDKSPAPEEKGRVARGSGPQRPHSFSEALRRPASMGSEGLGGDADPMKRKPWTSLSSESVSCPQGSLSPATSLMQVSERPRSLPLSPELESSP
Chain of Calcium/calmodulin-dependent protein kinase type 1 (Homo sapiens) (Q14012 whole entry, looked up): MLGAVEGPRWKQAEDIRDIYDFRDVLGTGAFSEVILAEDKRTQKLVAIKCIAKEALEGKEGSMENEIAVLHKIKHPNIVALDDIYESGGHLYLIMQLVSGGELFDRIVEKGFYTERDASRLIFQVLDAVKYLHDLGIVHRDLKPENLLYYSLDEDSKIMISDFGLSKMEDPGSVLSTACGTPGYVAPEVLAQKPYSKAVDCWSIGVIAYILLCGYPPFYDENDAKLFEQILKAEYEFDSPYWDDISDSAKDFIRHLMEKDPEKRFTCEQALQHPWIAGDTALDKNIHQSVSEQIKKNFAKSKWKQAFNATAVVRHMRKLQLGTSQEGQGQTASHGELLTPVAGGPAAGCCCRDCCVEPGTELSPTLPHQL

For `C=CC(=O)Nc1cccc(C(=O)Nc2ccc(Nc3cc(-c4[nH]c(SC)nc4C)ccn3)cc2)c1`, the % of control in assay [1] (at 1 µM) is 92%; in assay [1] (at 5 µM), 76%.

With `CCC(=O)N1CCN(c2ccc(-n3c(=O)ccc4cnc5ccc(-c6cnc7ccccc7c6)cc5c43)cc2C(F)(F)F)CC1`, the % of control in assay [2] was found to be 75%.

The compound `O=C(NOC[C@H](O)CO)c1ccc(F)c(F)c1Nc1ccc(I)cc1F` registered a % of control in assay [3] of 85%.

On to `CC[C@@H]1[C@H](F)C(=O)N[C@@H]1COc1nccc2cc(C(N)=O)c(OC)cc12` [ZIMLOVISERTIB], for which the % of inhibition in assay [4] was -2.3%.

Compound `COCC(=O)NC/C=C/c1ccc2ncnc(Nc3ccc(Oc4ccc(C)nc4)c(C)c3)c2c1` [CP-724714] displayed a % of control in assay [5] of 84%.
